In ChEMBL document CHEMBL4316613, “Recent developments in the synthesis and applications of phosphinic peptide analogs” (Bioorg Med Chem Lett, 2019):
pKi: −log10 of the molar value.

Columns and labels:
[1] = Inhibition of Neisseria meningitidis APN
Leucine aminopeptidase = target: T1, Leucine aminopeptidase (Plasmodium falciparum 3D7, UniProt Q8IL11); assay: Inhibition of Plasmodium falciparum LAP
T1 sequence (Q8IL11 whole entry): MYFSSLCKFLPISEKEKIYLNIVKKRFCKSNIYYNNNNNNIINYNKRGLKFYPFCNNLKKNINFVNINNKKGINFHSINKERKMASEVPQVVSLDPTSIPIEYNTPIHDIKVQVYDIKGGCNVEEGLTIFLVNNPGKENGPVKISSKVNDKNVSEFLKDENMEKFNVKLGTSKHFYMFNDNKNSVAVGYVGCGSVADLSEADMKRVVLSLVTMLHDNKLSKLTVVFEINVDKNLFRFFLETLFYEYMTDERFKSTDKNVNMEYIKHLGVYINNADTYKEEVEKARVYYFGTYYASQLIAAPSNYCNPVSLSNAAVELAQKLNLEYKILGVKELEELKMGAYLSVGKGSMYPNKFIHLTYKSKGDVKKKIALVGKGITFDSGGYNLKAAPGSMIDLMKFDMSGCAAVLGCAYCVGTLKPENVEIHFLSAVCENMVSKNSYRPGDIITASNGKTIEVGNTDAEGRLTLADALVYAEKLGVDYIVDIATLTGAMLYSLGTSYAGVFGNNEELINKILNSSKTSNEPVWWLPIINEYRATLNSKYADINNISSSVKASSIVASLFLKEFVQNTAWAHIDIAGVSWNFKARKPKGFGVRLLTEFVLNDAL

[2] = target: T2, Macrophage metalloelastase (Homo sapiens, UniProt P39900); assay: Inhibition of human MMP12
Collagenase 3 = Collagenase 3 (Homo sapiens, UniProt P45452); assay: Inhibition of human MMP13 by photoaffinity probe based assay
Neutrophil collagenase = Neutrophil collagenase (Homo sapiens, UniProt P22894); assay: Inhibition of human MMP8 by photoaffinity probe based assay
[3] = target: 72 kDa type IV collagenase (Homo sapiens, UniProt P08253); assay: Inhibition of human MMP2 by photoaffinity probe based assay
[4] = target: Matrix metalloproteinase-9 (Homo sapiens, UniProt P14780); assay: Inhibition of human MMP9 by photoaffinity probe based assay
[5] = target: T2, Macrophage metalloelastase; assay: Inhibition of human MMP12 by photoaffinity probe based assay
[6] = target: T3, Leukotriene A-4 hydrolase (Homo sapiens, UniProt P09960); assay: Inhibition of human recombinant LTA4H by L-(4-benzoyl)phenylalanyl-beta-naphthylamide fluorigenic substrate by fluorescence based assay
T3 sequence (P09960 whole entry): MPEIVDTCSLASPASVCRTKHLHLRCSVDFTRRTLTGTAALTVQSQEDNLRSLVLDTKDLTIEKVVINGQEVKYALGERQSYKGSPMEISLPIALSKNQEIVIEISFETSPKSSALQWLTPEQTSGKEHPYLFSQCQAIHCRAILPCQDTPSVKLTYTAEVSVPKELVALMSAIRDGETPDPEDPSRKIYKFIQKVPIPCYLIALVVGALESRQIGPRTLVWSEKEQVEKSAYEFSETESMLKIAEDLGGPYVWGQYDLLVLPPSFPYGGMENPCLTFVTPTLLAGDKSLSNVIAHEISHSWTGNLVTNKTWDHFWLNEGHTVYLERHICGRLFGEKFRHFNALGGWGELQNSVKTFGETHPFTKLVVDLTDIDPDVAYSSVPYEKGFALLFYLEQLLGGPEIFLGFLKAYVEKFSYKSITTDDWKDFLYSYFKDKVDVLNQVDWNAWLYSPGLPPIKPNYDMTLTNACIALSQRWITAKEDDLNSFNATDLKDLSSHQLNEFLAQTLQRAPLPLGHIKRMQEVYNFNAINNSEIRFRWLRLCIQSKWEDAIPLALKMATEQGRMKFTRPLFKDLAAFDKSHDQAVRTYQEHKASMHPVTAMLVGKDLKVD

[7] = Inhibition of Helicobacter pylori Csd4
[8] = Inhibition of Plasmodium falciparum APN

T2 sequence (P39900 whole entry): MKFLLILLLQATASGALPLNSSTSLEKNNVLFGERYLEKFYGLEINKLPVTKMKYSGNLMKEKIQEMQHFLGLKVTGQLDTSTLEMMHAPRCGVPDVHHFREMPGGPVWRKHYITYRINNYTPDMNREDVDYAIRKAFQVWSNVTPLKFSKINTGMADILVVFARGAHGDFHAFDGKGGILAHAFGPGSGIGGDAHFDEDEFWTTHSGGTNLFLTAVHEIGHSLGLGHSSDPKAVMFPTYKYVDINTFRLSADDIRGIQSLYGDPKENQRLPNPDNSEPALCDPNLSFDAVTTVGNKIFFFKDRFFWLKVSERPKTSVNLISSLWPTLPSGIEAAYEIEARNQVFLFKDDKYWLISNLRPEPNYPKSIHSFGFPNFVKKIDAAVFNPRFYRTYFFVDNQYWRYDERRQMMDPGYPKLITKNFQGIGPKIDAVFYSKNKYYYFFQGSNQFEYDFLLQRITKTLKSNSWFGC
Chain of Neutrophil collagenase (P22894 whole entry): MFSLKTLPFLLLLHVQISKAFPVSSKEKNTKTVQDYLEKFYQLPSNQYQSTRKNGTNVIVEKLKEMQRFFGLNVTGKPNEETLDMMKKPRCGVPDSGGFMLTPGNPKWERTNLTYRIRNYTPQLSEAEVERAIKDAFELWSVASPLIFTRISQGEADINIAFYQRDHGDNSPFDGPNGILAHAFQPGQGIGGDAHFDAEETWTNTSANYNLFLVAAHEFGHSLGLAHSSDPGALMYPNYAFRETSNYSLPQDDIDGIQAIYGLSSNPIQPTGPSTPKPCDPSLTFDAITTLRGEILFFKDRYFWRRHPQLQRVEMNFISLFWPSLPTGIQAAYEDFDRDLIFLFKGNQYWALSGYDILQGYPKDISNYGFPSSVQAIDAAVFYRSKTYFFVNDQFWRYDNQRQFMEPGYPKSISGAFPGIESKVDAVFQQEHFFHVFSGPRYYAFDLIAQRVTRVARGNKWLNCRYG
Chain of Matrix metalloproteinase-9 (P14780 whole entry): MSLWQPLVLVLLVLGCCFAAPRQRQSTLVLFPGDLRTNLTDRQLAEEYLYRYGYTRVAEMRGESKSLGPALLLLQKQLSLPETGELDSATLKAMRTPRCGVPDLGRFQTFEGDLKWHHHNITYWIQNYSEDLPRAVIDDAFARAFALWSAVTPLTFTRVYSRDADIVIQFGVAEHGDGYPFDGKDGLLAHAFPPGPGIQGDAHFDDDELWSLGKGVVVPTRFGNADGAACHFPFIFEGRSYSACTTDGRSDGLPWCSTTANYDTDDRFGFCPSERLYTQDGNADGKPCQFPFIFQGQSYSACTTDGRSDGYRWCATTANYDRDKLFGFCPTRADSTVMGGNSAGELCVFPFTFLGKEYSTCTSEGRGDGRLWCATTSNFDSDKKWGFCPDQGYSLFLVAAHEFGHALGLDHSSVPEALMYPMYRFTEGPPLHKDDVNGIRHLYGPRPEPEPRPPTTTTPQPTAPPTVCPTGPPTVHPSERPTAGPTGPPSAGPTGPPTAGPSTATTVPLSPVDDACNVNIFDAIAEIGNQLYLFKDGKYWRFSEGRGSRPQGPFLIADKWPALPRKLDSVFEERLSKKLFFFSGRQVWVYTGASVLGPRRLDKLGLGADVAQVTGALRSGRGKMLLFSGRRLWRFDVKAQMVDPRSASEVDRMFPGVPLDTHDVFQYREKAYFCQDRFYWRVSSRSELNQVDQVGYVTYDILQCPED
Chain of 72 kDa type IV collagenase (P08253 whole entry): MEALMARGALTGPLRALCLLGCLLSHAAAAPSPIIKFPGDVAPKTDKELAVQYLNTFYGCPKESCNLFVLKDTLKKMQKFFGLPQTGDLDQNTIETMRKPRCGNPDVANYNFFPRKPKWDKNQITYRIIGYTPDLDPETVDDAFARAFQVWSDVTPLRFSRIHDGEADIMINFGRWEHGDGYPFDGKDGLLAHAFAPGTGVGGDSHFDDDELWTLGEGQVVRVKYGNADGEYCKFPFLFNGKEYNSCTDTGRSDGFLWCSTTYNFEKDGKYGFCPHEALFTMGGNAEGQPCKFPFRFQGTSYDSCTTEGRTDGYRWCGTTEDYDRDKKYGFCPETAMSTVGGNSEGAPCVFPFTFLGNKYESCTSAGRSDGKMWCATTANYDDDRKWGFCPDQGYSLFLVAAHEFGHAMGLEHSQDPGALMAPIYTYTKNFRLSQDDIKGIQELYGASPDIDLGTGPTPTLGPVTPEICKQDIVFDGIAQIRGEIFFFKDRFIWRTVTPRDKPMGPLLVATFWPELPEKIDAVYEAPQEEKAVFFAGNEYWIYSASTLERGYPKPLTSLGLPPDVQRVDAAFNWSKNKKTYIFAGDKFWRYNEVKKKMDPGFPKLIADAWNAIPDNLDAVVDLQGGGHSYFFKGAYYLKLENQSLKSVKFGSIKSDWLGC

Q: With NC(CCc1ccccc1)P(=O)(O)CC(Cc1ccccc1)C(=O)O (stereo not given) as the compound, how does the pKi [1] read?
A: 6.52

Q: What about the pKi (Leucine aminopeptidase) of the same compound?
A: 7.89

Q: With CC[N+]1=C(/C=C/C=C/C=C2/N(CCCCCC(=O)NCCCOCCOCCOCCCNC(=O)[C@H](CCC(=O)O)NC(=O)[C@H](C)NC(=O)[C@H](Cc3cc(-c4ccc(-c5cccc(Cl)c5)cc4)no3)CP(=O)(O)c3ccc(Br)cc3)c3ccc4c(S(=O)(=O)O)cc(S(=O)(=O)O)cc4c3C2(C)C)C(C)(C)c2c1ccc1c(S(=O)(=O)[O-])cc(S(=O)(=O)O)cc21 as the compound, how does the pKi [2] read?
A: 9.05

Q: With [3H]CC([3H])C(=O)NCCCOCCOCCOCCCNC(=O)[C@H](CO)NC(=O)[C@H](CC)NC(=O)[C@H](Cc1cc(-c2ccc(C3(C(F)(F)F)N=N3)cc2)no1)CP(=O)(O)c1ccccc1 (stereo not given in full) as the compound, how does the pKi (Collagenase 3) read?
A: 8.80

Q: And the pKi (Neutrophil collagenase)?
A: 9.22

Q: And the pKi [3]?
A: 9.30

Q: What about the pKi [4] of the same compound?
A: 8.59

Q: What about the pKi [5] of the same compound?
A: 9.00

Q: With CC(=O)N1CCC(CP(=O)(O)[C@H](C)N)(C(=O)N[C@@H](C)C(=O)O)CC1 as the compound, how does the pKi [6] read?
A: 8.28

Q: With C[C@H](NC(=O)C1(CP(=O)(O)[C@H](C)N)CCCC1)C(=O)O as the compound, how does the pKi [6] read?
A: 8.34

Q: With C[C@H](NC(=O)[C@H](Cc1cc(-c2ccc(-c3cccc(Cl)c3)cc2)no1)CP(=O)(O)c1ccc(Br)cc1)C(=O)N[C@@H](CCC(=O)O)C(N)=O as the compound, how does the pKi [2] read?
A: 9.59

Q: With CC(=O)N[C@H](CCP(=O)(O)CC(CCC[C@@H](N)C(=O)O)C(=O)O)C(=O)O (stereo not given in full) as the compound, how does the pKi [7] read?
A: 5.82

Q: With NC(CCc1ccccc1)P(=O)(O)CC(Cc1ccc(O)cc1)C(=O)O (stereo not given) as the compound, how does the pKi [1] read?
A: 7.27

Q: And the pKi [8]?
A: 6.63

Q: And the pKi (Leucine aminopeptidase)?
A: 8.00
